Results from patent US20230357166A1, “PIPERAZINE-BASED CATIONIC LIPIDS” (TRANSLATE BIO, INC., priority 2020, published 2023).

Test system: male CD1 mice
Test: Delivery of Firefly Luciferase (FFL) mRNA by intratracheal administration of lipid nanoparticles
Type: in vivo
Details: lipid nanoparticles (Process A) with FFL mRNA, cationic lipid, DMG-PEG2000, cholesterol and DOPE (40:5:25:30 or 45:5:20:30 mol %); single intratracheal aerosol administration; IVIS imaging approximately 24 hours post-dose; FIG. 1
Description: One exemplary process for lipid nanoparticle formulation is Process A of WO 2018/089801 (see, e.g., Example 1 and FIG. 1 of WO 2018/089801). Process A (“A”) relates to a conventional method of encapsulating mRNA by mixing mRNA with a mixture of lipids, without first pre-forming the lipids into lipid nanoparticles. In an exemplary process, an ethanol lipid solution and an aqueous buffered solution of mRNA were prepared separately. A solution of mixture of lipids (cationic lipid, helper lipids, zwitterionic lipids, PEG lipids etc.) was prepared by dissolving lipids in ethanol. The mRNA solution was prepared by dissolving the mRNA in citrate buffer. Then, these two solutions were mixed using a pump system. In some instances, the two solutions were mixed using a gear pump system. In certain embodiments, the two solutions were mixing using a ‘T’ junction (or “Y” junction). The mixture was then purified by diafiltration with a TFF process. The resultant formulation concentrated and stored at 2-8° C. until further use.
Lipid nanoparticle formulations prepared using Process A comprising FFL mRNA, cationic lipid, DMG-PEG2000, cholesterol and DOPE (40:5:25:30 or 45:5:20:30 mol % ratio) were administered to male CD1 mice (6-8 weeks old) by a single intratracheal aerosol administration via a Microsprayer® (50 ul/animal) while under anesthesia. At approximately 24 hours post-dose, the animals were dosed with luciferin at 150 mg/kg (60 mg/ml) by intraperitoneal injection at 2.5 ml/kg. After 5-15 minutes, all animals were imaged using an IVIS imaging system to measure luciferase production in the lung.

SMILES | in vivo protein production (FFL protein; luciferase production in the lung)
CCCCC/C=C\C/C=C\CCCCCCC(O)CN(CCCC(=O)OCCN1CC(C)N(CCOC(=O)CCCN(CC(O)CCCCCC/C=C\C/C=C\CCCCC)CC(O)CCCCCC/C=C\C/C=C\CCCCC)CC1C)CC(O)CCCCCC/C=C\C/C=C\CCCCC (stereo not shown) [Compound A15] | high levels of in vivo protein production
CCCCCCCCCCCCC(O)CN(CCCC(=O)OCCN1CC(C)N(CCOC(=O)CCCN(CC(O)CCCCCCCCCCCC)CC(O)CCCCCCCCCCCC)CC1C)CC(O)CCCCCCCCCCCC (stereo not shown) [Compound A11] | high levels of in vivo protein production
CC(C)CCCCCCCOC(=O)CCN(CCCCC(=O)OCCN1CC(C)N(CCOC(=O)CCCCN(CCC(=O)OCCCCCCCC(C)C)CCC(=O)OCCCCCCCC(C)C)CC1C)CCC(=O)OCCCCCCCC(C)C (stereo not shown) [Compound D23] | high levels of in vivo protein production
CCCCCCCCC(O)CN(CCCCC(=O)OCCN1CC(C)N(CCOC(=O)CCCCN(CC(O)CCCCCCCC)CC(O)CCCCCCCC)CC1C)CC(O)CCCCCCCC (stereo not shown) [Compound A17] | high levels of in vivo protein production
CCCCCCCCC(O)CN(CCCC(=O)OCCN1CC(C)N(CCOC(=O)CCCN(CC(O)CCCCCCCC)CC(O)CCCCCCCC)CC1C)CC(O)CCCCCCCC (stereo not shown) [Compound A9] | high levels of in vivo protein production
CCCCCCCCC(O)CN(CCCCC(=O)SCCN1CC(C)N(CCSC(=O)CCCCN(CC(O)CCCCCCCC)CC(O)CCCCCCCC)CC1C)CC(O)CCCCCCCC (stereo not shown) [Compound C17] | high levels of in vivo protein production
CCCCCCCCC(O)CN(CCCC(=O)SCCN1CC(C)N(CCSC(=O)CCCN(CC(O)CCCCCCCC)CC(O)CCCCCCCC)CC1C)CC(O)CCCCCCCC (stereo not shown) [Compound C9] | high levels of in vivo protein production
CCCCCCCCCCCCC(O)CN(CCCCC(=O)OCCN1CC(C)N(CCOC(=O)CCCCN(CC(O)CCCCCCCCCCCC)CC(O)CCCCCCCCCCCC)CC1C)CC(O)CCCCCCCCCCCC (stereo not shown) [Compound A19] | high levels of in vivo protein production
CCCCCCCCOC(=O)CCN(CCCCC(=O)OCCN1CC(C)N(CCOC(=O)CCCCN(CCC(=O)OCCCCCCCC)CCC(=O)OCCCCCCCC)CC1C)CCC(=O)OCCCCCCCC (stereo not shown) [Compound D21] | high levels of in vivo protein production
CCCCCCCCCCC(O)CN(CCCCC(=O)OCCN1CC(C)N(CCOC(=O)CCCCN(CC(O)CCCCCCCCCC)CC(O)CCCCCCCCCC)CC1C)CC(O)CCCCCCCCCC (stereo not shown) [Compound A18] | high levels of in vivo protein production
